In ChEMBL document CHEMBL3588744, “Structure-Based Optimization of Naphthyridones into Potent ATAD2 Bromodomain Inhibitors” (J Med Chem, 2015):

Assays:
[1] = Permeability across phosphatidyl choline membrane at pH 7.4 after 3 hrs by HPLC with UV detection method; format: ADME; conditions: not told, read-out: permeability
[2] = target: T1, ATPase family AAA domain-containing protein 2B (Homo sapiens, UniProt Q9ULI0); experiment: Binding affinity to ATAD2B (unknown origin) by BROMOscan panel based assay
T1 sequence (Q9ULI0 whole entry, the tested form may be a part): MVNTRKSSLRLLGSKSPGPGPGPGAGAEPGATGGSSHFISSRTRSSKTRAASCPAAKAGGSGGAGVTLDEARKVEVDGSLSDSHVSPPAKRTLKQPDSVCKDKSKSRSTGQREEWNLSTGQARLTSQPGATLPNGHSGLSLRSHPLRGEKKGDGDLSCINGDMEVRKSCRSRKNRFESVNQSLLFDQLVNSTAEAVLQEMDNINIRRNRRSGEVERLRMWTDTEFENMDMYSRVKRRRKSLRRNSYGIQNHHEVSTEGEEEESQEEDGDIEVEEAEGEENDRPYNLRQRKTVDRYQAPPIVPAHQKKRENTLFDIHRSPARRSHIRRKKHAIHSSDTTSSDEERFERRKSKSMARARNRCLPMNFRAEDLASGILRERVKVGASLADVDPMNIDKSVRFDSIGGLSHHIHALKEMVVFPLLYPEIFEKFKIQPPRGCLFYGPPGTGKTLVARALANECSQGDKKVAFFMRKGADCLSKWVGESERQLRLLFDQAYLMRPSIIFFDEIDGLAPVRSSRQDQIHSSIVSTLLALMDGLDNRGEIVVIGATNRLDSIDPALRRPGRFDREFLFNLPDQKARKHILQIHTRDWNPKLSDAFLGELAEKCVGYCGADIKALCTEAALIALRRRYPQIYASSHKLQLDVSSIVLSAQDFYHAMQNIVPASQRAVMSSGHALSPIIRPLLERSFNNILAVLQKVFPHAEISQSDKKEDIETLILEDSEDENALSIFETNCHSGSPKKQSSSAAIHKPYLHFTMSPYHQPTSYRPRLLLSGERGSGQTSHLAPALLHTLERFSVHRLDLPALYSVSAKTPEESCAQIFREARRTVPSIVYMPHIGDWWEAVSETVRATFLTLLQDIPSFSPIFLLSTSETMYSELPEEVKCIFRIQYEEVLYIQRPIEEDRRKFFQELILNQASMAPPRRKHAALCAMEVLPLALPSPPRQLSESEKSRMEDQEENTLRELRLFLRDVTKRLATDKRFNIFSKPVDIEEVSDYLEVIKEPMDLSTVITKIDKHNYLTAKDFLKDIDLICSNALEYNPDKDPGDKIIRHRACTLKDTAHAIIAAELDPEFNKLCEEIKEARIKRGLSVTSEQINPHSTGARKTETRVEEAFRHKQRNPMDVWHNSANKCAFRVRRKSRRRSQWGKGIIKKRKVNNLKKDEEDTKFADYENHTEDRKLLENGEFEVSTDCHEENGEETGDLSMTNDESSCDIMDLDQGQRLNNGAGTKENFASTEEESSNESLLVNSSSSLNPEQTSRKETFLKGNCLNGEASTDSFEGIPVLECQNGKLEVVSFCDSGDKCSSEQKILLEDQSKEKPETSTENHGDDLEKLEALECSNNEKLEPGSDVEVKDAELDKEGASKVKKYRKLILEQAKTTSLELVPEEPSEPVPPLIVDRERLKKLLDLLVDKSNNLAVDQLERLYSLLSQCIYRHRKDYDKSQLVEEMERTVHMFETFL

[3] = target: Transcription initiation factor TFIID subunit 1-like (Homo sapiens, UniProt Q8IZX4); experiment: Binding affinity to TAF1L (unknown origin) by BROMOscan panel based assay
[4] = target: Chromatin remodeling regulator CECR2 (Homo sapiens, UniProt Q9BXF3); experiment: Binding affinity to CECR2 (unknown origin) by BROMOscan panel based assay
[5] = target: T1, ATPase family AAA domain-containing protein 2B; experiment: Binding affinity to ATAD2B in human HUT78 cells incubated for 45 mins by mass spectrometry based bromosphere chemoproteomic assay; format: cell-based
[6] = target: Tyrosine-protein kinase BAZ1B (Homo sapiens, UniProt Q9UIG0); experiment: Binding affinity to BAZ1B in human HUT78 cells incubated for 45 mins by mass spectrometry based bromosphere chemoproteomic assay; format: cell-based
Chain of Tyrosine-protein kinase BAZ1B (Q9UIG0 whole entry, the tested form may be a part): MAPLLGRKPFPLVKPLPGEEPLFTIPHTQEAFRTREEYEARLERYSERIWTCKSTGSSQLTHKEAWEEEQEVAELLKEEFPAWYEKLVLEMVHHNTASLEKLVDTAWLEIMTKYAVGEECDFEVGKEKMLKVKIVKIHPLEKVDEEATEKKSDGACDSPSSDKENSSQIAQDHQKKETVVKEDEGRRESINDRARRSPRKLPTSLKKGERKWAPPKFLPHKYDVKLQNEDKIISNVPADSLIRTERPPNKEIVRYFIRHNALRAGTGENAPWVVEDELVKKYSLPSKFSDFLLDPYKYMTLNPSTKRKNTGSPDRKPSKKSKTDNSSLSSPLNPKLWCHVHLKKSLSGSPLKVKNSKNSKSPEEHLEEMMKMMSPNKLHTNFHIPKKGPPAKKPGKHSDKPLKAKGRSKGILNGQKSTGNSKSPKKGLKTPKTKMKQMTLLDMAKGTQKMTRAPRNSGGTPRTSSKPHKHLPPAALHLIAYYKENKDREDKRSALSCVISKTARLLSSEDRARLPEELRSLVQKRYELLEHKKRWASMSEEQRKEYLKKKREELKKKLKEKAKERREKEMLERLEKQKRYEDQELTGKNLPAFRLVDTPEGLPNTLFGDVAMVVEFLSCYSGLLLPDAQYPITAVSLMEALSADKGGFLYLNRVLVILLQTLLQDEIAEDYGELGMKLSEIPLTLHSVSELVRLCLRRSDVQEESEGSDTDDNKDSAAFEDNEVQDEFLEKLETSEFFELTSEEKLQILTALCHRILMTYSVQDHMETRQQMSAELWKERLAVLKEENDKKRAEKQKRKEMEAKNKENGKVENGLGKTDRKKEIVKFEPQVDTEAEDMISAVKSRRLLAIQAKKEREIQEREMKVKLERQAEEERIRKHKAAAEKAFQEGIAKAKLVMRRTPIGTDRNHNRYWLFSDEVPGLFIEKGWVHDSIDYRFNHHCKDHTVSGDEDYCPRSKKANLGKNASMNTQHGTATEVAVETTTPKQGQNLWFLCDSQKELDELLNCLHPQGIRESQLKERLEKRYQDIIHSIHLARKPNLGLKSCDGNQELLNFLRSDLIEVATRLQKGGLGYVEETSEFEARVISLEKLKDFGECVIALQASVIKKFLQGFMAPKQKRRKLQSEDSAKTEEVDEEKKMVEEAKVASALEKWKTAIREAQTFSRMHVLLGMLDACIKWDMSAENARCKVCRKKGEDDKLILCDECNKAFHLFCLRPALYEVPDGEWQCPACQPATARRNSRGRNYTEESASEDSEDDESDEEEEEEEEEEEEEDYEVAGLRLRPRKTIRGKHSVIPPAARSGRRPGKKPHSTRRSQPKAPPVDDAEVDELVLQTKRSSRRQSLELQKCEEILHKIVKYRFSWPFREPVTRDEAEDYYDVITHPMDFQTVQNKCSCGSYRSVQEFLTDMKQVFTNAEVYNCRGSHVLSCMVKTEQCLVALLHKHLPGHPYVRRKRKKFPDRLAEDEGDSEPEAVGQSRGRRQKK

[7] = target: Bromodomain adjacent to zinc finger domain protein 2A (Homo sapiens, UniProt Q9UIF9); experiment: Binding affinity to BAZ2A in human HUT78 cells incubated for 45 mins by mass spectrometry based bromosphere chemoproteomic assay; format: cell-based
[8] = target: T2, Bromodomain-containing protein 2 (Homo sapiens, UniProt P25440); experiment: Binding affinity to BRD2 in human HUT78 cells incubated for 45 mins by mass spectrometry based bromosphere chemoproteomic assay; format: cell-based
T2 sequence (P25440 whole entry): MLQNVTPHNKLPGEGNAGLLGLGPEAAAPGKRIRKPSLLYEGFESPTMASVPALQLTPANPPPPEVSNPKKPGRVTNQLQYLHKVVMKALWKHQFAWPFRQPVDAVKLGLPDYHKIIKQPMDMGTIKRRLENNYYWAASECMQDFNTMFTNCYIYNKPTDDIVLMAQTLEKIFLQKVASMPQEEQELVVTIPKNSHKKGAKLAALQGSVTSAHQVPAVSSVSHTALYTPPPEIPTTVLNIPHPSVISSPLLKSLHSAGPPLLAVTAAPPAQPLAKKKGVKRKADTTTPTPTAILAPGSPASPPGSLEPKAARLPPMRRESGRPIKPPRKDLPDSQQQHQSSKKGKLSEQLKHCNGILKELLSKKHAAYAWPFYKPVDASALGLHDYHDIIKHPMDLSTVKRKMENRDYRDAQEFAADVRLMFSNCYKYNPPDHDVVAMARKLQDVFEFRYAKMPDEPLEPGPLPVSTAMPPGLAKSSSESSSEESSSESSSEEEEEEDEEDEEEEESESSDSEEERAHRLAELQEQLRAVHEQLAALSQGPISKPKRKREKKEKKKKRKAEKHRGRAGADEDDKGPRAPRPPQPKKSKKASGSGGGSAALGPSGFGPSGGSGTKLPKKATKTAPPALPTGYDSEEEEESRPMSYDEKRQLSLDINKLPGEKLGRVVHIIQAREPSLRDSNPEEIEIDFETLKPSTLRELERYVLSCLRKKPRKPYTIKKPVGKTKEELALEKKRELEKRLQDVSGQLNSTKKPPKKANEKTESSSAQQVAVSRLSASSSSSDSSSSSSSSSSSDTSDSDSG

[9] = target: T3, Peregrin (Homo sapiens, UniProt P55201); experiment: Binding affinity to BRPF1 in human HUT78 cells incubated for 45 mins by mass spectrometry based bromosphere chemoproteomic assay; format: cell-based
T3 sequence (P55201 whole entry): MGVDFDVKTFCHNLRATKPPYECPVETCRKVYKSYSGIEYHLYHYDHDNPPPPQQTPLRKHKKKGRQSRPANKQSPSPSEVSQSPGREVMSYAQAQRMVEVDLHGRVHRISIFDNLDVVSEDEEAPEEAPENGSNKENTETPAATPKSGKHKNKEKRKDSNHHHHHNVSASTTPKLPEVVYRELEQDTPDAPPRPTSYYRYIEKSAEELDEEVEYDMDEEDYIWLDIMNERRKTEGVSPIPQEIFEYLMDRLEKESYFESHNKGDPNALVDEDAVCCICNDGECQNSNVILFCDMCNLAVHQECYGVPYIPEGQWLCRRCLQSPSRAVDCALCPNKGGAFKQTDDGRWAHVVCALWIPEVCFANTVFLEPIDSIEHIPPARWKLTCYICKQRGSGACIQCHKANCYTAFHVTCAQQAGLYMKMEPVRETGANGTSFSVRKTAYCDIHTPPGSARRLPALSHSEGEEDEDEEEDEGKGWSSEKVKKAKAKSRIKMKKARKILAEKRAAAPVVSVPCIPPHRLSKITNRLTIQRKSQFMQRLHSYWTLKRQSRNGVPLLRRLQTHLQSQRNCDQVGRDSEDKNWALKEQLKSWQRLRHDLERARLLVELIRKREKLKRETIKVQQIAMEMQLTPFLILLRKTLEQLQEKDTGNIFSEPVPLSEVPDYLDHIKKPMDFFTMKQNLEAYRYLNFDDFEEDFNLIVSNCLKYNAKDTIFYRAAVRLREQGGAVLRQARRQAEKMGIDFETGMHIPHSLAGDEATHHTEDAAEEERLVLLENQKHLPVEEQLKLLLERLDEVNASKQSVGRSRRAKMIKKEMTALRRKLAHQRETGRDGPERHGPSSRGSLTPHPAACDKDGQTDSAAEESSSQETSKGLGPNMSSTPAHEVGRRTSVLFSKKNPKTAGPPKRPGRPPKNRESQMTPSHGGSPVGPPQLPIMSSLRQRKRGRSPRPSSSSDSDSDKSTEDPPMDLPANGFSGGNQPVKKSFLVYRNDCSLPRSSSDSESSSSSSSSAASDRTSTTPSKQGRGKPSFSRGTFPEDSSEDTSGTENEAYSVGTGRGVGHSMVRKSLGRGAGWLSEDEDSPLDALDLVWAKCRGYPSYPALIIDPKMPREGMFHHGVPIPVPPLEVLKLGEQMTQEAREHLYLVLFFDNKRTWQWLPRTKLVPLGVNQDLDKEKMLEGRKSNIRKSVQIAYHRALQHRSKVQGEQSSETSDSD

[10] = target: Histone acetyltransferase KAT2A (Homo sapiens, UniProt Q92830); experiment: Binding affinity to KAT2A in human HUT78 cells incubated for 45 mins by mass spectrometry based bromosphere chemoproteomic assay; format: cell-based
[11] = target: SWI/SNF-related matrix-associated actin-dependent regulator of chromatin subfamily A member 4 (Homo sapiens, UniProt P51532); experiment: Binding affinity to SMARCA4 in human HUT78 cells incubated for 45 mins by mass spectrometry based bromosphere chemoproteomic assay; format: cell-based
[12] = target: Transcription initiation factor TFIID subunit 1 (Homo sapiens, UniProt P21675); experiment: Binding affinity to TAF1 in human HUT78 cells incubated for 45 mins by mass spectrometry based bromosphere chemoproteomic assay; format: cell-based
[13] = target: T2, Bromodomain-containing protein 2; experiment: Binding affinity to BRD2 containing BD1 bromodomains (unknown origin) by TR-FRET assay
[14] = target: Bromodomain-containing protein 3 (Homo sapiens, UniProt Q15059); experiment: Binding affinity to BRD3 containing BD1 bromodomains (unknown origin) by TR-FRET assay
Chain of Bromodomain-containing protein 3 (Q15059 whole entry): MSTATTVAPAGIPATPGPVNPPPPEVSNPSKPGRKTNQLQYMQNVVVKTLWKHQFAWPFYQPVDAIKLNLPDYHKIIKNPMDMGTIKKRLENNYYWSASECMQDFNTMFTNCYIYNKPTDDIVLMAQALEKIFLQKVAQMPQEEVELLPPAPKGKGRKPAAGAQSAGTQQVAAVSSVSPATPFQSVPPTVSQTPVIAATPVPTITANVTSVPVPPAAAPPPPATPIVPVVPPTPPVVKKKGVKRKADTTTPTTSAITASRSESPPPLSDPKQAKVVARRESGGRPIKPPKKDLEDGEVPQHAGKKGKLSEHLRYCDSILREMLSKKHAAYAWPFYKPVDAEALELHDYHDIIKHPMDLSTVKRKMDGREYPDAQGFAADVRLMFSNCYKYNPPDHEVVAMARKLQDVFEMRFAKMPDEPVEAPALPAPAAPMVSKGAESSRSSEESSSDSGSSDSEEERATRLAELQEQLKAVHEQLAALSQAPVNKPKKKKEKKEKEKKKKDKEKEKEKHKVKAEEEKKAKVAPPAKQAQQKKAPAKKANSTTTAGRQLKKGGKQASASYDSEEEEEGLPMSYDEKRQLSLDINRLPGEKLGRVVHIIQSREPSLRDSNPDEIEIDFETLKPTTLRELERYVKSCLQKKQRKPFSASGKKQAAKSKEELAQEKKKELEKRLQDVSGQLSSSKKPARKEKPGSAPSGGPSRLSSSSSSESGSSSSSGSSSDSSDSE

[15] = target: T4, Bromodomain-containing protein 4 (Homo sapiens, UniProt O60885); experiment: Binding affinity to BRD4 containing BD1 bromodomains (unknown origin) by TR-FRET assay
[16] = target: T4, Bromodomain-containing protein 4; experiment: Binding affinity to BRD4 containing BD2 bromodomains (unknown origin) by TR-FRET assay

Papp at 3 h [1]: < 1 ×10⁻⁶ cm/s
Ki [2]: 0.0398 µM
Ki [3]: 0.126 µM
Ki [4]: 0.794 µM
Kd [5]: 0.1 µM
Kd [6]: > 100 µM
Kd [7]: > 100 µM
Kd [8]: 20 µM
Kd [9]: > 100 µM
Kd [10]: > 100 µM
Kd [11]: 20 µM
Kd [12]: 1.26 µM
IC50 [13]: > 50.1 µM
IC50 [14]: > 50.1 µM
IC50 [15]: 79.4 µM
IC50 [16]: > 501 µM
SMILES: Cc1cncc(-c2cnc(N[C@@H]3CCN(C)C[C@H]3OCC3CCS(=O)(=O)CC3)c3[nH]c(=O)c(C)cc23)c1
